What all share (experiment): relative viability (nuclei count vs DMSO), 5 days (fraction); higher = more cells survive
Compound in test [1]: CC1=NC=CC(=C1)C2=CC=C(C=C2)CC(=O)NC3=CC=C(C=C3)C4=CN=CC=C4 [Wnt-C59] + CC1(C)CCC(c2ccc(Cl)cc2)=C(CN2CCN(c3ccc(C(=O)NS(=O)(=O)c4ccc(N[C@H](CCN5CCOCC5)CSc5ccccc5)c(S(=O)(=O)C(F)(F)F)c4)cc3)CC2)C1 [Navitoclax] (partner 0.5 µM)
In a few lines: (§1)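 Lung cancer cell lines, seeded in 1536-well plates, were treated the following day by pin tool with a single drug or with five library-drug doses (not always all listed) in √10 steps on top of a fixed anchor-drug dose. Cells were fixed and nuclei stained in one step after 5 days, and nuclei were counted. Relative viability is the nuclei count for treated wells divided by that for vehicle wells, reported as medians of duplicate plates.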

Compound in test [2]: CC1=NC=CC(=C1)C2=CC=C(C=C2)CC(=O)NC3=CC=C(C=C3)C4=CN=CC=C4 [Wnt-C59] + Nc1ncn([C@H]2C[C@H](O)[C@@H](CO)O2)c(=O)n1 [Decitabine] (partner 2 µM)
A digest of the protocol:
as §1

Compound in test [3]: CC1=NC=CC(=C1)C2=CC=C(C=C2)CC(=O)NC3=CC=C(C=C3)C4=CN=CC=C4 [Wnt-C59] + COc1cccc2cc(-c3nc([C@H]4CC[C@H](C(=O)O)CC4)n4ncnc(N)c34)[nH]c12 [OSI-027] (partner 0.5 µM)
A digest of the protocol: as §1

Compound in test [4]: CC1=NC=CC(=C1)C2=CC=C(C=C2)CC(=O)NC3=CC=C(C=C3)C4=CN=CC=C4 [Wnt-C59] + CC(=O)c1c(C)c2cnc(Nc3ccc(N4CCNCC4)cn3)nc2n(C2CCCC2)c1=O [Palbociclib] (partner 0.5 µM)
In a few lines: as §1

Compound in test [5]: CC1=NC=CC(=C1)C2=CC=C(C=C2)CC(=O)NC3=CC=C(C=C3)C4=CN=CC=C4 [Wnt-C59] + N=C(N)NC(=N)NCCc1ccccc1 [Phenformin] (partner 250 µM)
In a few lines: as §1

UMC-11: the relative viability in test [1] (first compound 0.001 µM) is 0.312; in test [1] (first compound 0.01 µM), 0.315; in test [1] (first compound 0.03162 µM), 0.265; in test [1] (first compound 0.1 µM), 0.339; in test [2] (first compound 0.001 µM), 0.572; in test [2] (first compound 0.01 µM), 0.607. Further, the relative viability in test [2] (first compound 0.03162 µM) is 0.559; in test [2] (first compound 0.1 µM), 0.72; in test [3] (first compound 0.001 µM), 0.464; in test [3] (first compound 0.01 µM), 0.495; in test [3] (first compound 0.03162 µM), 0.477; in test [3] (first compound 0.1 µM) it was 0.462. Also, the relative viability in test [4] (first compound 0.001 µM) was 0.337; in test [4] (first compound 0.01 µM), 0.319; in test [4] (first compound 0.03162 µM) it was 0.361; in test [4] (first compound 0.1 µM), 0.305; in test [5] (first compound 0.001 µM), 0.305; in test [5] (first compound 0.01 µM) it was 0.282. Also, the relative viability in test [5] (first compound 0.03162 µM) was 0.328; in test [5] (first compound 0.1 µM) it was 0.32.
